{"source": "paper PMC5086383", "about": "“Isolation and Physicochemical Characterization of Laccase from Ganoderma lucidum-CDBT1 Isolated from Its Native Habitat in Nepal” (BioMed Research International, 2016)", "test_system": "T1, laccase isozyme 3 (purified laccase from Ganoderma lucidum-CDBT1)", "T1 construct": "native secreted enzyme purified from culture medium (ammonium sulfate, DEAE Sepharose); 43 kDa by SDS-PAGE", "assay": "ABTS oxidation at […] nm, Lineweaver-Burk", "type": "biochemical", "settings": "0.1 M sodium acetate pH 5.0, room temperature (~25°C); ABTS 0.01 to 10 mM; co-substrate O2"}
{"smiles": "CCn1c(=NN=c2sc3cc(S(=O)(=O)O)ccc3n2CC)sc2cc(S(=O)(=O)O)ccc21", "note": "[ABTS, 2,2′-azino-bis(3-ethylbenzothiazoline-6-sulfonic acid)]", "values": [{"measurement": "Km", "result": 110, "unit": "µM"}]}
